The numbers were not newly measured in patent US20220117972A1, “USE OF PPAR-DELTA AGONISTS IN THE TREATMENT OF MITOCHONDRIAL MYOPATHY” (Reneo Pharmaceuticals, Inc., priority 2019, published 2022), which cites them from elsewhere.

This data set has as its system control myoblasts. Particulars: cultured patient muscle cells study; cited from earlier work.

Consider `Cc1cc(SCc2sc(-c3ccc(C(F)(F)F)c(F)c3)nc2C)ccc1OCC(=O)O` [GW 072], for which the FAO stimulation entry was “stimulated FAO”.
Turning to `CC(C)(Sc1ccc(CCN(CCCCC2CCCCC2)C(=O)NC2CCCCC2)cc1)C(=O)O` [GW 7647], the FAO stimulation entry is on record as “to a lower extent”.
